Our source for the TGI values is PubChem BioAssay (NCI).

Test systems include DLD-1 colon; LXFL 529 NSCLC; DMS 273 small cell lung; M19-MEL melanoma; CCRF-CEM leukemia; DMS 114 small cell lung; SNB-78 CNS; SK-MEL-28 melanoma; NCI-H460 lung; XF 498 CNS; SK-OV-3 ovarian; HCT-15 colon; KM20L2 colon.
Assay in all cases: NCI tumour cell line growth inhibition, 48 h

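Grown in 96-well plates, cells were treated for 48 hours with each compound at five concentrations. Insufficient inhibition: endpoint recorded as highest concentration tested. TGI: total growth inhibition.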

As to `NC1=NS(=O)(=O)Nc2nc(-c3ccc(Cl)cc3)c(-c3ccc(Cl)cc3)nc21`, the TGI in the test with DLD-1 colon, in the test with LXFL 529 NSCLC, with DMS 273 small cell lung, in the test with M19-MEL melanoma, in the test on CCRF-CEM leukemia and with DMS 114 small cell lung was more than 100 µM throughout. For the same compound, the TGI with SNB-78 CNS, with SK-MEL-28 melanoma, in the test with NCI-H460 lung and in the test on XF 498 CNS was more than 100 µM each time.

For the compound `Cc1cc(C)[n+](CCOc2ccc(/C(=C(/Cl)c3ccccc3)c3ccccc3)cc2)c(C)c1`, the TGI in the test on SK-OV-3 ovarian was found to be 6.54 µM; in the test on DLD-1 colon, 15.8 µM; in the test with LXFL 529 NSCLC it was 1.82 µM; with HCT-15 colon, 27.5 µM; with DMS 273 small cell lung it was 1.48 µM; in the test on KM20L2 colon it was 12.7 µM. For the same compound, the TGI is 1.84 µM in the test on M19-MEL melanoma; 3.28 µM in the test with CCRF-CEM leukemia; 5.43 µM with DMS 114 small cell lung; 19.5 µM in the test with SNB-78 CNS; 3.58 µM in the test with SK-MEL-28 melanoma; 8.18 µM in the test with NCI-H460 lung. In addition, in the test with XF 498 CNS, the TGI stood at 1.29 µM.

Take `CC(=O)OC1CC2C(C)(C)OC(=O)CC(OC(C)=O)[C@]2(C)C2CCC3(C)C(=CCC3[C@H]3COC(=O)C3)[C@]12C` (some centres undefined): the TGI with SK-OV-3 ovarian, in the test with DLD-1 colon, in the test on LXFL 529 NSCLC, with HCT-15 colon, in the test with DMS 273 small cell lung and in the test with KM20L2 colon was more than 100 µM throughout. The TGI was more than 100 µM in the test on M19-MEL melanoma; 65.8 µM in the test with CCRF-CEM leukemia; more than 100 µM in the test on DMS 114 small cell lung; more than 100 µM in the test with SNB-78 CNS; more than 100 µM in the test with SK-MEL-28 melanoma; more than 100 µM with NCI-H460 lung. Moreover, the TGI with XF 498 CNS was more than 100 µM.

`CC(C)C(=O)/C=C/c1ccc(Br)cc1`: the TGI was 49.6 µM with SK-OV-3 ovarian; 20.3 µM in the test with DLD-1 colon; 33.8 µM in the test with LXFL 529 NSCLC; 28.7 µM with DMS 273 small cell lung; 21.5 µM with KM20L2 colon; 28.9 µM with M19-MEL melanoma. In addition, the TGI was 21.5 µM with CCRF-CEM leukemia; 37 µM in the test with DMS 114 small cell lung; more than 100 µM in the test with SNB-78 CNS; 41 µM in the test with SK-MEL-28 melanoma; 30.1 µM with NCI-H460 lung; 30.4 µM with XF 498 CNS.

Regarding `CC(=O)Nc1cc2c(s1)CCC1CC(=O)NN=C21` (centres undefined), the TGI in the test on LXFL 529 NSCLC, with HCT-15 colon, in the test with DMS 273 small cell lung, with KM20L2 colon, with M19-MEL melanoma and in the test with CCRF-CEM leukemia was more than 100 µM throughout. Also, the TGI in the test on DMS 114 small cell lung, in the test on SNB-78 CNS, in the test on SK-MEL-28 melanoma, in the test on NCI-H460 lung and in the test with XF 498 CNS was more than 100 µM throughout.
